Data on two compounds can be found in patent US4229477A, “Pharmaceutical compositions containing bromhexine and method of treating diabetic nephropathy therewith” (Boehringer Ingelheim GmbH, priority 1978, dated 1980).

The subject of one data set is mice. The note with it: British Pat. No. 968,254; cited from earlier work.
Data set [1] deals with glycoprotein metabolism. Put plainly: Effect of bromhexine on glycoprotein metabolism: urinary excretion of carbohydrate-containing material, diabetics. It is filed as in vivo, humans. The procedure: (§1) The effect of N-(2-amino-3,5-dibromo-benzyl)-N-methyl-cyclohexylammonium chloride (Bromhexine) on glycoprotein metabolism was determined as follows:
(§2) 24 hour collections were made from 8 normal healthy humans (4 women and 4 men) and 8 diabetics (1 woman and 7 men) before and after a 3 to 4 week period of treating each subject orally 3 times with 24 mg of bromhexine. A 20% by volume aliquot was taken from each urine specimen and freeze-dried.
(§3) The dried material (ca 1 gm) was dissolved in the minimum quantity of distilled water and the solution was chromatographed with water on a Sephadez G-50 column (length: 148 cm; diameter: 3.4 cm). The carbohydrate-containing fraction was collected and subjected to ultrafiltration using a UM-05 membrane (Amicon Ultrafiltration Cell-Model 202). The filtrate obtained was again freeze-dried.
(§4) The dried material (ca 1 mg) was analyzed for carbohydrate, using gas-liquid chromatography. In this procedure, the sample, together with internal standards, was first subjected to methanolysis with 1.0 M HCl in dry methanol (0.5 ml) for 24 hours at 85° C. The resulting solution was neutralized and then treated with acetic acid anhydride (0.05 ml) for 6 hours. On completion of the treatment the solution obtained was centrifuged, and the supernatant liquid was transferred to a clean flask, dried and stored in a dessicator. When required for gas chromatography, the dried material was triturated with a trimethylsilylating mixture, and the resulting trimethylsilyl ethers of the methyl glycosides were subjected to gas chromatography (140°-200° C. at 0.5° C./min.).
5 patients were maintained on insulin, 2 on oral hypoglycemic agents and 1 on diet alone. Diabetic treatment was not changed during the study. 3 patients suffered varying degrees of retinopathy, 1 had ischaemic heart disease and 1 had intermittent proteinuria.

In data set [2] the test system is glycoprotein metabolism. Put plainly: Effect of bromhexine on glycoprotein metabolism: urinary excretion of carbohydrate-containing material, healthy subjects. The format is in vivo, humans. Particulars: after treatment. The procedure: as §1, §2, §3, §4
Where [3] appears, read: healthy subjects, oral, 3 times 24 mg, 3 to 4 weeks, before 121.

For the compound `CN(Cc1cc(Br)cc(Br)c1N)C1CCCCC1.Cl` [bromhexine, N-(2-amino-3,5-dibromo-benzyl)-N-methyl-cyclohexylammonium chloride], the “animals died (acute oral toxicity)” value in the data set on mice was 0 out of 10. Besides, the “excretion of carbohydrate-containing material” value in the data set with glycoprotein metabolism [1] (diabetic subjects, after treatment) is on record as “considerable decrease”. Besides, the “24 - Hour Volume” value was 1,686 ml with glycoprotein metabolism [1] (diabetics, after treatment, oral, 3 times 24 mg, 3 to 4 weeks, 24 hour urine, before 1,694) and 1,406 ml with glycoprotein metabolism [2] (healthy subjects, oral, 3 times 24 mg, 3 to 4 weeks, 24 hour urine, before 1,281). Further, the Fraction dry weight was 6.1 gm in the data set on glycoprotein metabolism [1] (diabetics, after treatment, oral, 3 times 24 mg, 3 to 4 weeks, before 8.7) and 4.4 gm in the data set on glycoprotein metabolism [2] (healthy subjects, oral, 3 times 24 mg, 3 to 4 weeks, before 4.2). In addition, the Total dry weight with glycoprotein metabolism [1] (diabetics, after treatment, oral, 3 times 24 mg, 3 to 4 weeks, before 102.6) worked out at 110.7 gm; in the data set on glycoprotein metabolism [2] (healthy subjects, oral, 3 times 24 mg, 3 to 4 weeks, before 36.3), 44.0 gm. Moreover, the “Carbohydrate content: N-Acetylneuraminic acid” value in the data set on glycoprotein metabolism [1] (diabetics, after treatment, oral, 3 times 24 mg, 3 to 4 weeks, before 195) is 145 μMol/24 hours; with glycoprotein metabolism [2] (healthy subjects, oral, 3 times 24 mg, 3 to 4 weeks, before 94), 147 μMol/24 hours. Further, the “Carbohydrate content: Mannose” value worked out at 121 μMol/24 hours in the data set with glycoprotein metabolism [1] (diabetics, after treatment, oral, 3 times 24 mg, 3 to 4 weeks, before 205) and 169 μMol/24 hours in the data set with glycoprotein metabolism [2] (setting [3]). The “Carbohydrate content: Fucose” value in the data set on glycoprotein metabolism [1] (diabetics, after treatment, oral, 3 times 24 mg, 3 to 4 weeks, before 259) is listed as 203 μMol/24 hours; in the data set with glycoprotein metabolism [2] (setting [3]) it was 224 μMol/24 hours. In addition, the “Carbohydrate content: N-Acetylgalactosamine” value in the data set with glycoprotein metabolism [1] (diabetics, after treatment, oral, 3 times 24 mg, 3 to 4 weeks, before 264) is listed as 176 μMol/24 hours; with glycoprotein metabolism [2] (healthy subjects, oral, 3 times 24 mg, 3 to 4 weeks, before 139), 196 μMol/24 hours. For the same compound, the “Carbohydrate content: N-Acetylglucosamine” value in the data set with glycoprotein metabolism [1] (diabetics, after treatment, oral, 3 times 24 mg, 3 to 4 weeks, before 313) is 181 μMol/24 hours; in the data set with glycoprotein metabolism [2] (healthy subjects, oral, 3 times 24 mg, 3 to 4 weeks, before 204), 287 μMol/24 hours. The “Carbohydrate content: Galactose” value in the data set with glycoprotein metabolism [1] (diabetics, after treatment, oral, 3 times 24 mg, 3 to 4 weeks, before 616) turned out to be 383 μMol/24 hours; in the data set on glycoprotein metabolism [2] (healthy subjects, oral, 3 times 24 mg, 3 to 4 weeks, before 258) it was 364 μMol/24 hours. Further, the “Carbohydrate content: Glucuronic acid” value in the data set with glycoprotein metabolism [1] (diabetics, after treatment, oral, 3 times 24 mg, 3 to 4 weeks, before 1,854) is on record as 987 μMol/24 hours; with glycoprotein metabolism [2] (healthy subjects, oral, 3 times 24 mg, 3 to 4 weeks, before 1,085), 1,573 μMol/24 hours. Besides, the “Carbohydrate content: Glucose” value with glycoprotein metabolism [1] (diabetics, after treatment, oral, 3 times 24 mg, 3 to 4 weeks, before 12,609) is 7,241 μMol/24 hours; in the data set on glycoprotein metabolism [2] (healthy subjects, oral, 3 times 24 mg, 3 to 4 weeks, before 329), 425 μMol/24 hours. The “urinary excretion of carbohydrate-containing material” value in the data set with glycoprotein metabolism [2] (normal subjects) is on record as “insignificant rise”.

With `CN(Cc1cc(Br)cc(Br)c1N)C1CCCCC1` [N-(2-amino-3,5-dibromo-benzyl)-N-methyl-cyclohexylamine], in the data set with glycoprotein metabolism [1] (diabetics, 15 to 30 mg, 3 to 4 times per day), the “proportion of saccharide and glycopeptide excreted” value is on record as “strongly reduced to levels equivalent to those of a normal healthy subject”.
